Patent publication US10940149B1, “Kinase inhibitor salts and compositions thereof” (HANDA ONCOLOGY, LLC, priority 2018, dated 2021)
Structures can show the parent of a compound that is named as a salt.

How the values were obtained:
[1] = HPLC impurity and stability of dasatinib lauryl sulfate salts and capsules (Example 54); assay type: physicochemical
Procedure: The RRT was determined using HPLC with the following parameters:
The mobile phase A was 0.05 M aqueous Ammonium Acetate (pH 5.25)/Acetonitrile/Methanol in a volume ratio of 90/5/5.
The mobile phase B was 0.05 M aqueous Ammonium Acetate (pH 5.25)/Acetonitrile/Methanol in a volume ratio of 10/85/5.
Additional methanol is added so the test sample is approximately 0.20 mg of dasatinib per mL.

[2] = HPLC impurity and stability of nilotinib lauryl sulfate salts and dosage forms (Example 62); assay type: physicochemical
Procedure: Mobile phase A was 0.25% Formic Acid/acetonitrile in a volume ratio of 90/10.
Mobile phase B was 0.1% Formic Acid/acetonitrile in a volume ratio of 10/90.
Additional diluent is added so the test sample is approximately 0.10 mg of nilotinib per mL.
The test sample of the dosage forms prepared in Examples 60 F and 60 G were prepared by the following procedure:
1. Cut the tip of the capsule with scissors and squeeze the contents from the hole into the 100-mL volumetric flask. Cut the capsule into two parts and add the parts to the flask. Add 80% full of ethanol, sonicate for 10 minutes and stir at 800 rpm for 30 minutes to dissolve the contents completely.
2. Dilute to volume with ethanol, mix well by inverting the flask NLT 10 times
3. Pipette 3 ml into 25-mL amber volumetric flask and add ethanol to volume, mix well by inverting the flask NLT 10 times. The test sample is approximately 0.096 mg of nilotinib per mL.
The nilotinib dilauryl sulfate salt prepared in Example 26 were tested for impurities and stability using HPLC with the following parameters:
The test sample of the nilotinib dilauryl sulfate salt prepared in Example 26 were prepared by weighing about 10 mg of nilotinib dilauryl sulfate (equivalent to 5 mg of nilotinib) and transfer into a 25-mL amber volumetric flask, adding 20 mL of diluent (ethanol), sonicating for about 5 minutes and stirring at 800 rpms for about 5 minutes until the nilotinib dilauryl sulfate is dissolved. Additional diluent is added so the test sample is approximately 0.20 mg of nilotinib per mL.

[3] = solubility of nilotinib salts, HPLC (Example 38A); assay type: physicochemical; conditions: 37 °C, pH 1, simulated gastric fluid, thermodynamic from solid
Procedure: (§1) The reaction mass was filtered and the filtrate solution was measured by HPLC.

[4] = physchem; conditions: 37 °C, pH 1, simulated gastric fluid, thermodynamic from solid
Procedure: as §1

[5] = solubility of dasatinib salts at 37° C., HPLC (Example 47A); assay type: physicochemical; conditions: for solubility: thermodynamic from solid
Procedure: as §1

[6] = solubility of nintedanib salts at room temperature, HPLC (Example 25A); assay type: physicochemical; conditions: thermodynamic from solid
Procedure: as §1

[7] = 60° C./75% R.H. 1 week, HDPE bottle, HPLC Inertsil ODS-3 (NLB-2LS method)
[8] = Room temp., HPLC Inertsil ODS-3 (NLB-2LS method)

## CCCCCCCCCCCCOS(=O)(=O)O.Cc1nc(Nc2ncc(C(=O)Nc3c(C)cccc3Cl)s2)cc(N2CCN(CCO)CC2)n1 [Example 12, dasatinib monolauryl sulfate]
[1]; 40° C./75% R.H., 1 Month
  impurity at RRT 0.96: 0.09
  impurity at RRT 1.10 (2-Chloro-6-methylaniline): 0.04
  impurity at RRT 1.31 (DAS-6): 0.02
[1]; 40° C./75% R.H., 3 Months
  impurity at RRT 0.87: 0.02
  impurity at RRT 0.94 (DAS PIP): 0.03
  impurity at RRT 0.96: 0.10
  impurity at RRT 1.10 (2-Chloro-6-methylaniline): 0.03
  impurity at RRT 1.31 (DAS-6): 0.03
[1]; Initial
  impurity at RRT 0.87: 0.02
  impurity at RRT 0.94 (DAS PIP): 0.02
  impurity at RRT 0.96: 0.09
  impurity at RRT 1.10 (2-Chloro-6-methylaniline): 0.02
  impurity at RRT 1.31 (DAS-6): 0.02

## CCCCCCCCCCCCOS(=O)(=O)O.CCCCCCCCCCCCOS(=O)(=O)O.Cc1nc(Nc2ncc(C(=O)Nc3c(C)cccc3Cl)s2)cc(N2CCN(CCO)CC2)n1 [Example 13, dasatinib dilauryl sulfate]
[1]; 40° C./75% R.H., 1 Month
  impurity at RRT 0.87: 0.06
  impurity at RRT 0.94 (DAS PIP): 0.09
  impurity at RRT 0.96: 0.14
  impurity at RRT 1.31 (DAS-6): 0.04
[1]; Initial
  impurity at RRT 0.87: 0.06
  impurity at RRT 0.94 (DAS PIP): 0.09
  impurity at RRT 0.96: 0.13
  impurity at RRT 1.31 (DAS-6): 0.02

## CCCCCCCCCCCCOS(=O)(=O)O.CCCCCCCCCCCCOS(=O)(=O)O.Cc1cn(-c2cc(NC(=O)c3ccc(C)c(Nc4nccc(-c5cccnc5)n4)c3)cc(C(F)(F)F)c2)cn1 [Example 26, nilotinib dilauryl sulfate]
[2]; [7]
  impurity at RRT 0.81: 0.05%
  impurity at RRT 1.09: 0.07%
  impurity at RRT 1.16: 0.11%
  impurity at RRT 1.28: 0.08%
[2]; [8]
  impurity at RRT 1.09: 0.07%
  impurity at RRT 1.16: 0.10%
  impurity at RRT 1.28: 0.02%

## CCCCCCCCCCCCOS(=O)(=O)O.Cc1cn(-c2cc(NC(=O)c3ccc(C)c(Nc4nccc(-c5cccnc5)n4)c3)cc(C(F)(F)F)c2)cn1 [Example 46, nilotinib monolauryl sulfate]
[2]; 60° C./75% R.H. 2 weeks, HDPE bottle, HPLC Xterra RP18 (NLB-1LS method)
  impurity at RRT 1.16: 0.07%
[2]; Room temp., HPLC Xterra RP18 (NLB-1LS method)
  impurity at RRT 1.16: 0.07%

## Cc1cn(-c2cc(NC(=O)c3ccc(C)c(Nc4nccc(-c5cccnc5)n4)c3)cc(C(F)(F)F)c2)cn1 [Nilotinib HCl]
[3]
  solubility: 3800 µg/mL

## Cc1ccc(Nc2nccc(N(C)c3ccc4c(C)n(C)nc4c3)n2)cc1S(N)(=O)=O [Pazopanib Hydrochloride, pazopanib hydrochloride]
[4]
  solubility: 3360 µg/mL

## Cc1nc(Nc2ncc(C(=O)Nc3c(C)cccc3Cl)s2)cc(N2CCN(CCO)CC2)n1 [dasatinib]
[5]
  aqueous solubility, pH dependence: varied with pH
[5]; aqueous buffer, 0.05M acetate buffer, pH = 4.5
  solubility: 86.9 µg/mL
[5]; aqueous buffer, 0.05M phosphate buffer, pH = 6.8
  solubility: 0.18 µg/mL
[5]; simulated gastric fluid, 0.1N HCl, pH = 1.0
  solubility: 654 µg/mL

## COC(=O)c1ccc2c(c1)NC(=O)/C2=C(\Nc1ccc(N(C)C(=O)CN2CCN(C)CC2)cc1)c1ccccc1 [nintedanib esylate]
[6]; aqueous buffer, 0.05 M acetate buffer, pH = 4.5
  solubility: 6260 µg/mL
[6]; aqueous buffer, 0.05 M phosphate buffer, pH = 6.8
  solubility: 2.2 µg/mL
[6]; simulated gastric fluid, 0.1 N HCl, pH = 1.0
  solubility: 107000 µg/mL
